Test results published in article PMC8018184, “Evaluation of the Pharmacophoric Role of the O–O Bond in Synthetic Antileishmanial Compounds: Comparison between 1,2-Dioxanes and Tetrahydropyrans” (Journal of Medicinal Chemistry, 2020).
“And” between values parts separate entries of the source, which are not always exact repeats. Equal values may be shown once.

Tests used:
[1] = test system: promastigotes of L. donovani; set-up: method as in PMID 30878827; conditions: in vitro; cited from earlier work
[2] = Cytotoxicity test on Vero cells (alamarBlue); format: cell-based, African green monkey; conditions: African green monkey
Protocol: Vero cells (kidney of African green monkey epithelial cell line) were cultured at 37 °C in the MEM liquid medium supplemented with 10% FBS (EuroClone SpA), 1% levoglutamine (EuroClone SpA), and 1% penicillin–streptomycin (EuroClone SpA). THP-1 cells (human leukemia monocytic cell line) were cultured at 37 °C in the RPMI 1640 (EuroClone SpA) liquid medium supplemented with 10% FBS (EuroClone SpA), 1% levoglutamine (EuroClone SpA), 1% penicillin–streptomycin, and mercaptoethanol (Gibco) 50 μM.
The cytotoxicity of the compounds was determined using mammalian kidney epithelial cells (Vero cell line) and human acute monocytic leukemia cell line (THP-1). Cells were seeded (10^5 cells mL^–1) on 96-well plates with the complete MEM medium and incubated with test compounds at 37 °C in a 5% CO2 incubator. After 72 h of incubation, 20 μL of the alamarBlue reagent was added to each well and incubated at 37 °C for 24 h. Reduction of resazurin to resorufin was evaluated after 24 h by absorbance measurement at the Multiskan ascent plate reader (Thermo Fisher Scientific Inc.,) at 550 and 630 nm. […] Each experiment was performed in duplicate.

[3] = test system: promastigotes of Leishmania donovani strains; set-up: method as in earlier work; conditions: Figure 1, cited from earlier work; for IC50: read-out: IC50 on promastigotes of L. donovani strains
[4] = test system: intramacrophage amastigotes of L. donovani; test: Amastigote growth inhibition assay in infected THP-1 cells (Giemsa, infectivity index); format: cell-based, Leishmania donovani; conditions: for IC50: Leishmania donovani, intracellular amastigotes in THP-1, 72 h, read-out: IC50 against amastigotes of L. donovani
Protocol: To evaluate the efficacy of the compounds on the intracellular form of L. donovani, human acute monocytic leukemia cell line (THP-1) was infected with L. donovani promastigotes. Cells were harvested and seeded in a 96-well plate (10^5 cells mL^–1) in the complete RPMI 1640 medium, and PMA (0.1 μM, Cayman Chemical Company, Ann Arbor, Michigan, USA) was added for obtaining maturation and cell adherence. Cells were incubated at 37 °C in a 5% CO2 incubator. After 48 h, the medium was replaced with the fresh medium containing stationary-phase promastigotes that were then phagocyted by monocytic cells and transformed into intracellular amastigotes. After 24 h of incubation, newly synthesized compounds were added and the plates were incubated at 37 °C in a 5% CO2 incubator for 72 h. After incubation, wells were washed, fixed, and stained with Giemsa. Staining was detected using a Nikon Eclipse E200 light microscope (Nikon, Tokyo, Japan). The infectivity index (% of infected macrophages × average number of amastigotes per macrophage) was determined by counting at least 100 cells in duplicate cultures.

[5] = test system: L. donovani promastigotes (MHOM/NP/02/BPK282/0cl4); test: Promastigote growth inhibition assay (alamarBlue); format: cell-based, Leishmania donovani; conditions: for IC50: Leishmania donovani, 72 h, alamarBlue, HOMEM 20% FBS, compounds as racemates, read-out: IC50 (concentration causing 50% growth inhibition) against promastigotes of L. donovani
Protocol: The bioactivity of the new tetrahydropyrans 3 was initially evaluated against the extracellular promastigote forms of L. donovani (MHOM/NP/02/BPK282/0cl4) as the reference strain, indicative of the leishmaniasis in the Old World. The results were expressed as IC50, i.e., the concentration of the product required to inhibit the parasite growth by 50%. When a compound could inhibit the promastigote growth, its cytotoxicity was also evaluated on Vero cells (Table 1) and on THP-1 cells (see the Supporting Information, Table S3) and the corresponding selectivity indexes (SIs) were calculated. The performance of each tetrahydropyran 3 was compared with that of the corresponding endoperoxide 2 (Table 1).
Promastigotes of a L. donovani reference strain (MHOM/NP/02/BPK282/0cl4) were maintained at 26 °C in a liquid custom-made medium, HOMEM Cat. no: 1140-082 (Gibco Thermo Fisher Scientific Inc., Waltham, USA), complete composition: S-MEM (Eagle) 1 × 1 liter pack, glucose (1–2 g), sodium bicarbonate (0.3 g), sodium pyruvate (0.11 g), p-aminobenzoic acid (1 mg), biotin (0.1 mg), HEPES (4.77–5.96 g), MEM amino acids (10 mL), MEM nonessential amino acids (10 mL), pH 7.5–7.6, supplemented with 20% fetal bovine serum (FBS, EuroClone SpA, Milan, Italy)[123] and 1% penicillin–streptomycin (EuroClone SpA).
To evaluate the efficacy of the compounds on the extracellular forms of L. donovani, promastigotes in their late log/stationary phase were seeded with the complete HOMEM medium at 10^6 cells mL^–1 in 96-well plates and incubated with tested compounds at a range concentration of 600–1.6 μM in a 26 °C incubator for 72 h. The antileishmanial drug amphotericin B was used as the positive control, and untreated promastigotes were the negative control. Each experiment was performed in duplicate. Stock solution of the compounds was 8 mM in DMSO. […] The alamarBlue assay includes a colorimetric growth indicator based on detection of metabolic activity. Specifically, the system incorporates an oxidation–reduction (REDOX) indicator that changes color in response to chemical reduction of the growth medium resulting from cell growth. The method monitors the reducing environment of proliferating cells; the cell-permeable resazurin is added (nonfluorescent form, blue color) and, upon entering cells, is reduced to resorufin (fluorescent form, red color) as a result of cellular metabolic activity. Evaluation was performed by adding 20 μL of alamarBlue and incubating at 26 °C for 24 h. The reducing environment was evaluated after 24 h by absorbance measurement at the Multiskan ascent plate reader (Thermo Fisher Scientific Inc.) at 550 and 630 nm.

Leishmania promastigotes = test system: Leishmania promastigotes; set-up: method as in PMID 27867026, PMID 17339374; conditions: Figure 3; cited from earlier work
[6] = test system: promastigotes of L. infantum; set-up: method as in PMID 26014947; conditions: in vitro; cited from earlier work
[7] = test system: intracellular amastigotes of L. infantum; set-up: method as in PMID 26014947; conditions: in vitro; cited from earlier work
[8] = test system: amastigotes of L. donovani; set-up: method as in PMID 30908481; conditions: cited from earlier work

CCCCC1(CCCC)CC(CNCCCn2ccnc2)C(C)(OC)OO1 (stereo not drawn) [3,4-cis 2a]
IC50 [1]: 5.5 µM

C[C@@H]1[C@H](O)[C@@H](C)/C=C/C=C/C=C/C=C/C=C/C=C/C=C/[C@H](O[C@@H]2O[C@H](C)[C@@H](O)[C@H](N)[C@@H]2O)C[C@@H]2O[C@](O)(C[C@@H](O)C[C@@H](O)[C@H](O)CC[C@@H](O)C[C@@H](O)CC(=O)O[C@H]1C)C[C@H](O)[C@H]2C(=O)O [Amphotericin B, reference compound]
CC50 at 72 h [2]: 200 µM
IC50 [3]: 0.03 to 2.8 µM
IC50 [4]: 0.07 µM
Selectivity index (SI) = CC50/IC50 ([4]; Vero CC50 / IC50 on amastigotes): 2857.1
IC50 [5]: 0.3 µM
Selectivity index (SI) = CC50/IC50 ([5]; Vero CC50 / IC50 on promastigotes): 666.7

C=CCO[C@@]1(C(F)(F)F)O[C@@H]2C[C@@]3(C)C[C@H]4[C@H](C)CC[C@@H]([C@H]1C)[C@@]24OO3 [BB241]
IC50 (Leishmania promastigotes): 1.6 to 6.3 µM

NCC1CC[C@]2(CC1)OO[C@]1(O2)C2CC3CC(C2)CC1C3 (stereo partly shown) [LC95]
IC50 [6]: 3.5 µM and 3.5 to 9.4 µM
IC50 [7]: 79.8 to 108 µM

NC[C@@H]1O[C@H](O[C@H]2[C@@H](O)[C@H](O[C@@H]3[C@@H](O)[C@H](N)C[C@H](N)[C@H]3O[C@H]3O[C@H](CO)[C@@H](O)[C@H](O)[C@H]3N)O[C@@H]2CO)[C@H](N)[C@@H](O)[C@@H]1O [Paromomycin]
IC50 [3]: 19.7 to 28.1 µM

COc1ccc(N[C@@]2(C(F)(F)F)O[C@@H]3C[C@@]4(C)C[C@H]5[C@H](C)CC[C@@H]([C@H]2C)[C@@]35OO4)cc1 [BB201]
IC50 (Leishmania promastigotes): 0.38 to 1.5 µM

6-(1,2,6,7-tetraoxaspiro[7.11]nonadec-4-yl) hexan-1-ol [N-251]
IC50 [8]: 6.7 µM

O=C1CCC2(CC1)OOC1(O2)C2CC3CC(C2)CC1C3 (stereo not shown) [LC50]
IC50 [7]: 79.8 to 108 µM

O.O.O.O.O.O.O.O.O.O=C([O-])[C@@H]1[O][Sb](=[O])([O][Sb]2(=[O])[O][C@H]([C@H](O)CO)[C@H](O)[C@H](C(=O)[O-])[O]2)[O][C@H]([C@H](O)CO)[C@@H]1O.[Na+].[Na+].[Na+] (stereo partly shown) [Sodium stibogluconate]
IC50 on promastigotes of L. donovani strains [3]: 8.8 to 22.0 µg/mL

CCCCC1(CCCC)CC(CNCCCn2ccnc2)C(C)(OC)OO1 (stereo not drawn) [3,4-trans 2a]
IC50 [1]: 4 µM

C[C@@H]1CC[C@H]2[C@@H](C)C(=O)O[C@@H]3O[C@@]4(C)CC[C@@H]1[C@]32OO4 [Artemisinin, reference compound]
IC50 (Leishmania promastigotes): 30.8 µM
IC50 [4]: > 40 µM
IC50 [5]: > 40 µM
